This is an account of results in patent EP0231444A2, “Optically active isomers and racemate of 1-(benztriazol-4-yloxy)-3-[2-(2-methoxyphenoxy)-ethylamino]-2-propanol, process for their preparation as well as their use as medicaments” (BOEHRINGER MANNHEIM GMBH, priority 1985, dated 1987).

The target of assay [1] is β₁-Rezeptoren (Rezeptoren des Herzmuskels) (Homo sapiens, UniProt P08588). The assay is described as follows: beta-1 adrenergic receptor blockade (no method described). As to conditions: qualitative statement.
The target in assay [2] is β₂-Rezeptoren (Rezeptoren der glatten Muskulatur) (Homo sapiens, UniProt P07550). The assay is described as follows: beta-2 adrenergic receptor blockade (no method described). The following applies: qualitative statement.
The subject of a further assay is Augeninnendruck. The assay is described as follows: lowering of intraocular pressure on local application (no method described). It counts as in vivo. The following applies: lokale Applikation, qualitative statement.
The subject of assay [3] is Blutgefäße. The assay is described as follows: vasodilating effect (no method described). The following applies: qualitative statement, enantiomers.
Assay [4] deals with Blutgefäße. As to conditions: as described in EP-B 14 951; cited from earlier work.
The mark [5] stands for this setting: listed as erfindungsgemäße Substanz.

Counter-ions that a name gives are not always drawn.

β₂-Rezeptoren (Rezeptoren der glatten Muskulatur), sequence (P07550 whole entry): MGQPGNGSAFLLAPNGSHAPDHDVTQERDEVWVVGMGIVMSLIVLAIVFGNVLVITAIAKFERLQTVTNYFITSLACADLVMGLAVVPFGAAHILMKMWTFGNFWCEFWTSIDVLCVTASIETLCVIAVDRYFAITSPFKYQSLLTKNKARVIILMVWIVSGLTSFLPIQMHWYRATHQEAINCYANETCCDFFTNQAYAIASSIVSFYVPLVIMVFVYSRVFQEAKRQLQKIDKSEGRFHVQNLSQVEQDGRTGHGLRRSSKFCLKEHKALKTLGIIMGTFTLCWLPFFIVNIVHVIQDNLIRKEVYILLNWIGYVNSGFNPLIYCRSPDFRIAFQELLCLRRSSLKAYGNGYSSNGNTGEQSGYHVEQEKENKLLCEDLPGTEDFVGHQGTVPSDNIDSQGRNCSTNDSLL
β₁-Rezeptoren (Rezeptoren des Herzmuskels), sequence (P08588 whole entry): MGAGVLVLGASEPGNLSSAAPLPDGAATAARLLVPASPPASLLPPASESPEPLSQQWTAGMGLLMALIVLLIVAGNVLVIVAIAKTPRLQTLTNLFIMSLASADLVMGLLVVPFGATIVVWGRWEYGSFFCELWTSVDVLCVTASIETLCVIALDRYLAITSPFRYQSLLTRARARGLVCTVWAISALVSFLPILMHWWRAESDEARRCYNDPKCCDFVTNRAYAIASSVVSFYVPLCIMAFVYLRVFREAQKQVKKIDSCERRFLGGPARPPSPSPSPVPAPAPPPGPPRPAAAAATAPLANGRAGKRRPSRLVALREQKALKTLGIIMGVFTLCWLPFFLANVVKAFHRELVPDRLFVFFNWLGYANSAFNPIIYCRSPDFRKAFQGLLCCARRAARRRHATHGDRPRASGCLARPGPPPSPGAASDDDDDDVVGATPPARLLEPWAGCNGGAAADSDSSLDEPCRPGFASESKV

As to `COc1ccccc1OCCNC[C@@H](O)COc1cccc2[nH]nnc12` (single isomer, unassigned) [R-Enantiomere], the “β₁-blockierende Wirkung” value in assay [1] is “keine β₁-blockierende”. In addition, the “β₂-blockierende Wirkung” value in assay [2] is “keine β₂-blockierende”. The “augeninnendrucksenkende Wirkung” value with Augeninnendruck is “augendrucksenkenden Wirkung”.

Regarding `COc1ccccc1OCCNC[C@H](O)COc1cccc2[nH]nnc12` (single isomer, unassigned) [S-Enantiomere, S-(-)-1-(Benztriazol-4-yloxy)-3-(2-(2-methoxyphenoxy)-ethyl-amino)-2-propanol-hydrochlorid], the “β₁-blockierende Wirkung” value in assay [1] is “praktisch die gesamte”. Further, the “vasodilatierende / blutgefäßerweiternde Wirkung” value in the assay with Blutgefäße [3] is reported as “blutgefäßerweiternde”.

In the case of `COc1ccccc1OCCNCC(O)COc1cccc2[nH]nnc12` (racemic) [racemische Substanz, 1-(Benztriazol-4-yloxy)-3-(2-(2-methoxyphenoxy)-ethylamino)-2-propanol], the “Selektivität β₁ gegenüber β₂ (cardioselektiv)” value in assay [1] (β₁ versus β₂) is listed as “cardioselektiv”. For the same compound, the figures for the “β₁-blockierende Wirkung” value in assay [1] (listed as Beispiel 8 b) and in assay [1] (setting [5]) were “vorwiegend eine β₁-blockierende Wirkung” and “β₁-blockierende Wirkung besitzt”, respectively. Moreover, the “β₂-blockierende Wirkung” value in assay [2] (listed as Beispiel 8 b) is “nicht oder nur wenig beeinflußt”; in assay [2] (setting [5]) it was “nur sehr geringe β₂-blockierende Wirkung”. For the same compound, the “augeninnendrucksenkende Wirkung” value in the assay on Augeninnendruck is on record as “in extrem geringer Konzentration”; with Augeninnendruck (setting [5]) it was “im gleichen Maße vorhanden ist wie bei üblichen bekannten β-blockierenden Verbindungen”. Besides, the “vasodilatierende Eigenschaften” value with Blutgefäße [4] is listed as “vasodilatierende Eigenschaften”.
